Data reported in US8546409B2, “Methods of treatment for solid tumors” (priority 2009, dated 2013).
Where two headings read alike, the source gives them in different places.

Legend:
SF-295 = assay: NCI panel growth inhibition, SF-295; format: cell-based; settings: Homo sapiens, CNS Cancer
Excerpt: (§1) Compound I has also been tested in a battery of tumor cell assays known as the NCI panel.

SNB-75 = assay: NCI panel growth inhibition, SNB-75; format: cell-based; settings: Homo sapiens, CNS Cancer
Excerpt: as §1

BT-549 = assay: NCI panel growth inhibition, BT-549; format: cell-based; settings: Homo sapiens, Breast Cancer
Excerpt: as §1

UACC-62 = assay: NCI panel growth inhibition, UACC-62; format: cell-based; settings: Homo sapiens, Melanoma
Excerpt: as §1

p110γ = biological target: T1, p110γ (Homo sapiens, UniProt P48736); assay: Cell-based p110γ assay: fMLP stimulated CD63 movement to surface of basophils
T1 construct: endogenous in cells; host or cells: basophils
T1 sequence (P48736 whole entry, species assumed): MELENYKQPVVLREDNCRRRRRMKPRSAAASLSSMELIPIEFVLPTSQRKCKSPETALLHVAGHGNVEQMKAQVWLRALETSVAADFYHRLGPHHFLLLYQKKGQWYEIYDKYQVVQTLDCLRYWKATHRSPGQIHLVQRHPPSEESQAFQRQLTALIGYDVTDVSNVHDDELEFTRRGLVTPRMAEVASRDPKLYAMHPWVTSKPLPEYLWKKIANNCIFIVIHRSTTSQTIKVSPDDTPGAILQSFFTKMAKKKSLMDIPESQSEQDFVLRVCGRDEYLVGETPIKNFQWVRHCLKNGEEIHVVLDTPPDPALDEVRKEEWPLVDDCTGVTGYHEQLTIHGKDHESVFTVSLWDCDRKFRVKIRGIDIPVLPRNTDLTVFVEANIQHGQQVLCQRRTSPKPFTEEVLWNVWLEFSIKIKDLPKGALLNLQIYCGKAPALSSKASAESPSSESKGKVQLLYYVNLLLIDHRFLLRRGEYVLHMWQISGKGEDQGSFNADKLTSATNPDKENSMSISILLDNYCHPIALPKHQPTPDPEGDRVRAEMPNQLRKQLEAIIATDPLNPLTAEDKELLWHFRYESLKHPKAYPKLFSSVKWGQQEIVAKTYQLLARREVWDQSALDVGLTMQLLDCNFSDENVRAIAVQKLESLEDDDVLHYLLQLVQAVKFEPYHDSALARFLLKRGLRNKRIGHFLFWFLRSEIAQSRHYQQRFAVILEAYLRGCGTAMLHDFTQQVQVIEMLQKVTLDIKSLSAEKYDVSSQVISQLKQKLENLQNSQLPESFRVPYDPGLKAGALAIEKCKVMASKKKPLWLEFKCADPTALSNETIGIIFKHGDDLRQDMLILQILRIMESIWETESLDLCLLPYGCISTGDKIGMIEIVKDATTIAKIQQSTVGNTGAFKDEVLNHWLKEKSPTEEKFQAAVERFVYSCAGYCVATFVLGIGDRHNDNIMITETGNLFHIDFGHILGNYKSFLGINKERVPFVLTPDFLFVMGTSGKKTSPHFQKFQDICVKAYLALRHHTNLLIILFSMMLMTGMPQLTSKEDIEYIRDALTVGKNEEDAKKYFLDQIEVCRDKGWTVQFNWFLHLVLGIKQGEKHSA
Experimental: (§2) The p110α assay used SW3T3 cells stimulated by PDGF, and p110 kinase activity was measured by Akt phosphorylation. The p110β activity was measured by lysophosphatidic acid stimulation of Akt phosphorylation in mouse embryonic fibroblasts. The activity of p110δ was measured by anti-FcεR1 antibody cross linking stimulation of CD63 movement to the surface of basophils. Finally, the activity of p110γ was measured by fMLP stimulation of CD63 antigen movement to the cell surface of basophils.

NCI-H322M = assay: NCI panel growth inhibition, NCI-H322M; format: cell-based; settings: Homo sapiens, Non-Small Cell Lung Cancer
Excerpt: as §1

SK-MEL-5 = assay: NCI panel growth inhibition, SK-MEL-5; format: cell-based; settings: Homo sapiens, Melanoma
Excerpt: as §1

HCT-116 = assay: NCI panel growth inhibition, HCT-116; format: cell-based; settings: Homo sapiens, Colon Cancer
Excerpt: as §1

A498 = assay: NCI panel growth inhibition, A498; format: cell-based; settings: Homo sapiens, Renal
Excerpt: as §1

SK-MEL-2 = assay: NCI panel growth inhibition, SK-MEL-2; format: cell-based; settings: Homo sapiens, Melanoma
Excerpt: as §1

SK-MEL-28 = assay: NCI panel growth inhibition, SK-MEL-28; format: cell-based; settings: Homo sapiens, Melanoma
Excerpt: as §1

[1] = system: Akt phosphorylation in OVCAR-3 (ovarian cancer); assay: Phosphorylation of Akt in OVCAR-3 cells (FIG. 4); format: cell-based; settings: OVCAR-3, 10 micromolar
Excerpt: (§3) This distinguishes compound I from other known PI3K inhibitors in development for treatment of solid tumors, which are believed to act primarily at the p110α isoform or on p110α plus other isoforms, or even on all PI3Ks plus mTOR.

MDA-MB-435 = assay: NCI panel growth inhibition, MDA-MB-435; format: cell-based; settings: Homo sapiens, Breast Cancer
Excerpt: as §1

EKVX = assay: NCI panel growth inhibition, EKVX; format: cell-based; settings: Homo sapiens, Non-Small Cell Lung Cancer
Excerpt: as §1

MALME-3M = assay: NCI panel growth inhibition, MALME-3M; format: cell-based; settings: Homo sapiens, Melanoma
Excerpt: as §1

LOX IMVI = assay: NCI panel growth inhibition, LOX IMVI; format: cell-based; settings: Homo sapiens, Melanoma
Excerpt: as §1

p110δ = biological target: T2, p110δ (Homo sapiens, UniProt O00329); assay: Chick embryo fibroblast (CEF) transformation assay, p110δ; format: cell-based; settings: read-out: EC-50 for inhibition of functional activity of p110δ
T2 construct: expressed in transfected cells; host or cells: chick embryo fibroblasts (CEF), viral transduction
T2 sequence (O00329 whole entry): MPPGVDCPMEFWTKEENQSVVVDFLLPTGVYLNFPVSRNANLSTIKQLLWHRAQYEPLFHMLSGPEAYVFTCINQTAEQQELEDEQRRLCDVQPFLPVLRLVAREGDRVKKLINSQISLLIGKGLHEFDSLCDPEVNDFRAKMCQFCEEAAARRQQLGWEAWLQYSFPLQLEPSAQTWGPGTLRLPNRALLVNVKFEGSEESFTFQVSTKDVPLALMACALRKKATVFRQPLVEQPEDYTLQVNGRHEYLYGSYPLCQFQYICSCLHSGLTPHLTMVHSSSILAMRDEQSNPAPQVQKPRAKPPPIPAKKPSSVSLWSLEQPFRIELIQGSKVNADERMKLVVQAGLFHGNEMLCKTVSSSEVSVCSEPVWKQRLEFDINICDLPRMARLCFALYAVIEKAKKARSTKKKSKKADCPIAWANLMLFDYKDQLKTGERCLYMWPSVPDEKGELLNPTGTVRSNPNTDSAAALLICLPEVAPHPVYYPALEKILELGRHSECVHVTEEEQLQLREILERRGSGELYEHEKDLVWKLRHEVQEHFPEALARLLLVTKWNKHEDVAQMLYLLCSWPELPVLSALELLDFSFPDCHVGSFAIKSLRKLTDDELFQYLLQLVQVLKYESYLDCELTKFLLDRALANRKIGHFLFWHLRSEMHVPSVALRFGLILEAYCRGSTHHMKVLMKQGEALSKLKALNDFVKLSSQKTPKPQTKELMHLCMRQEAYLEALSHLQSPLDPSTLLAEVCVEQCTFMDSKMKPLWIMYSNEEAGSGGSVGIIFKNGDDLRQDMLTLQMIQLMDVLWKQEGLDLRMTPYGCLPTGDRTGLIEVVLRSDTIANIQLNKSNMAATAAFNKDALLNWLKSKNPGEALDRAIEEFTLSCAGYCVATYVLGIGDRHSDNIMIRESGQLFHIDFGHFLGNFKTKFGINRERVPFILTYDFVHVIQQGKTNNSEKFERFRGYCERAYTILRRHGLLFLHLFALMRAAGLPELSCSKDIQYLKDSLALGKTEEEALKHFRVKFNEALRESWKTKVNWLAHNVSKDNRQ
Excerpt: Moreover, compound I has comparatively low activity on p110α in a cell-transformation system designed to measure functional activity of these kinases, but is a potent inhibitor of both p110β and p110δ in that assay. See Example 1. This chick embryo fibroblast (CEF) transformation system has been reported as a useful way to assess the functional activity of the PI3K signaling pathway. Denley, et al., “Oncogenic signaling of class I PI3K isoforms,” Oncogene, vol. 27(18), 2561-74 (2008). Transformation of CEF cells in the assay depends upon functional kinase activity. Kang, et al., Proc. Nat'l Acad. Sci. USA, vol. 103(5), 1289-94 (2006). The readout of this assay is based on the frequency of transformation of CEF cells exposed to viral vectors carrying a specific p110 isoform of interest.
Chick embryo fibroblasts (CEF) are transduced with viral stocks with versions of the human genes for the individual PI3K isoforms p110α, p110β, p110δ and p110γ. These transduced CEF lines are then plated in a growth medium where oncogenically transformed cells form foci that can then be stained and counted. […] Denley A, Kang S, Karst U and Vogt PK, “Oncogenic signaling of class 1 PI3K isoforms.” Oncogene (2008) 27: 2561-2574. FIG. 3 illustrates the readout of this assay.

OVCAR-8 = assay: NCI panel growth inhibition, OVCAR-8; format: cell-based; settings: Homo sapiens, Ovarian
Excerpt: as §1

M14 = assay: NCI panel growth inhibition, M14; format: cell-based; settings: Homo sapiens, Melanoma
Excerpt: as §1

NCI-H522 = assay: NCI panel growth inhibition, NCI-H522; format: cell-based; settings: Homo sapiens, Non-Small Cell Lung Cancer
Excerpt: as §1

HT29 = assay: NCI panel growth inhibition, HT29; format: cell-based; settings: Homo sapiens, HT-29, Colon Cancer
Excerpt: as §1

SW-620 = assay: NCI panel growth inhibition, SW-620; format: cell-based; settings: Homo sapiens, Colon Cancer
Excerpt: as §1

MDA-MB-231 = assay: NCI panel growth inhibition, MDA-MB-231; format: cell-based; settings: Homo sapiens, Breast Cancer
Excerpt: as §1

SK-OV-3 = assay: NCI panel growth inhibition, SK-OV-3; format: cell-based; settings: Homo sapiens, Ovarian
Excerpt: as §1

SN12C = assay: NCI panel growth inhibition, SN12C; format: cell-based; settings: Homo sapiens, Renal
Excerpt: as §1

ADR-RES = assay: NCI panel growth inhibition, ADR-RES; format: cell-based; settings: Breast Cancer
Excerpt: as §1

p110α = biological target: T3, p110α (Mus musculus, UniProt P42337); assay: Cell-based p110α assay: PDGF-stimulated Akt phosphorylation in SW3T3 cells
T3 construct: endogenous in cells; host or cells: SW3T3 cells
T3 sequence (P42337 whole entry): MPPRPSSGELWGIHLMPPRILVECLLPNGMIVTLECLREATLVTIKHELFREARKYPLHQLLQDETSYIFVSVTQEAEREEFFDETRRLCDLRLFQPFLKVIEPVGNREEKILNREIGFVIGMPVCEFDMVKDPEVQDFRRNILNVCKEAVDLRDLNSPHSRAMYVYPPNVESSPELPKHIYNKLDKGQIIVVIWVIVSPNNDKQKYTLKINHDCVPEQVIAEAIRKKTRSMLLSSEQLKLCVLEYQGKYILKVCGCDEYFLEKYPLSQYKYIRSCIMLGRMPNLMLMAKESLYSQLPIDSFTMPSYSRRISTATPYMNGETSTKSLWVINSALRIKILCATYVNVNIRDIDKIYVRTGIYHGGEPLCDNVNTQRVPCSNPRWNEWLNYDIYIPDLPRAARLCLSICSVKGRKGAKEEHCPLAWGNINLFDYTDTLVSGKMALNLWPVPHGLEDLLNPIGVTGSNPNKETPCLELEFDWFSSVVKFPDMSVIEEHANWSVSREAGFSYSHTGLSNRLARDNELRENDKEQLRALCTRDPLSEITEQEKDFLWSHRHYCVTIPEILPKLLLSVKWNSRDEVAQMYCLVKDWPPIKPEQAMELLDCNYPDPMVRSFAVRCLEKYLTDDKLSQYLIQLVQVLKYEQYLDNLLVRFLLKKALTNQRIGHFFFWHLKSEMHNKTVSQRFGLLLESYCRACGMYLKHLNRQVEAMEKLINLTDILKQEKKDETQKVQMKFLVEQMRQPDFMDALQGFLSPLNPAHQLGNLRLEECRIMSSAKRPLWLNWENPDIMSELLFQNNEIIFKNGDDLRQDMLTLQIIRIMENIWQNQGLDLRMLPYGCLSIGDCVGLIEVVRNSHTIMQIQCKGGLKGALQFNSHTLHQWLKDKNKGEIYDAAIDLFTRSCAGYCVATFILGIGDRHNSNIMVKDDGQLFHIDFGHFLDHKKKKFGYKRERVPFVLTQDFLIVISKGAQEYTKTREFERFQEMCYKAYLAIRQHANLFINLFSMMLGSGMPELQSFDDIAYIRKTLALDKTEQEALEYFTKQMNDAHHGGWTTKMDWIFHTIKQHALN
T3 sequence (P26450 whole entry partner): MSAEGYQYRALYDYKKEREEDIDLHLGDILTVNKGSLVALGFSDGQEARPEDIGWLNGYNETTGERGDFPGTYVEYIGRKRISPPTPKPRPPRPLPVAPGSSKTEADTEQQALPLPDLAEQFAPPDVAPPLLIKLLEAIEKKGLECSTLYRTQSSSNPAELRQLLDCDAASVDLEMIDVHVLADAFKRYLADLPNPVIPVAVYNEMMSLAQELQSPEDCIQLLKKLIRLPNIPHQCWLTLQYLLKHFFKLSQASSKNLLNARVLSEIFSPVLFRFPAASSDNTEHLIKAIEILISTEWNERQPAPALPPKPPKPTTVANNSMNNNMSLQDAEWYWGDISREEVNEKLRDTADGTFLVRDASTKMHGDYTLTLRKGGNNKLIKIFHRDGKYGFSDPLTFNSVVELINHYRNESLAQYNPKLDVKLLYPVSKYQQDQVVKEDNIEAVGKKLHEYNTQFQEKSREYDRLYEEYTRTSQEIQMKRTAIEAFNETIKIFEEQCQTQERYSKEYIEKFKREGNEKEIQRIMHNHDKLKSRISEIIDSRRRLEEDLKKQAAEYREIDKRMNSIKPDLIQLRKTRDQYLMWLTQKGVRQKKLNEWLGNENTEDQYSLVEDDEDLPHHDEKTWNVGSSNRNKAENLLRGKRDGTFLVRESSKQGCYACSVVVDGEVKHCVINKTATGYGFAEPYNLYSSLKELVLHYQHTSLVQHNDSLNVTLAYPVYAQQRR
Experimental: as §2

A549 = assay: NCI panel growth inhibition, A549; format: cell-based; settings: Homo sapiens, Non-Small Cell Lung Cancer
Excerpt: as §1

OVCAR-4 = assay: NCI panel growth inhibition, OVCAR-4; format: cell-based; settings: Homo sapiens, Ovarian
Excerpt: as §1

NCI-H226 = assay: NCI panel growth inhibition, NCI-H226; format: cell-based; settings: Homo sapiens, Non-Small Cell Lung Cancer
Excerpt: as §1

[2] = system: Akt phosphorylation in T47D (breast cancer); assay: Phosphorylation of Akt in T47D cells (FIG. 4); format: cell-based; settings: 10 micromolar
Excerpt: as §3

IGROV1 = assay: NCI panel growth inhibition, IGROV1; format: cell-based; settings: Homo sapiens, IGROV-1, Ovarian
Excerpt: as §1

## C[C@H](Nc1ncnc2[nH]cnc12)c1nc2ccc(F)cc2c(=O)n1-c1ccccc1 [Compound I]
SF-295
  GI50: 1.81 µM
SNB-75
  GI50: 0.0594 µM
BT-549
  GI50: 0.538 µM
UACC-62
  GI50: 1.43 µM
p110γ; FB, read-out: Cell-based assay EC50 p110γ, FB
  EC50: 3 µM
p110γ; WB, read-out: Cell-based assay EC50 p110γ, WB
  EC50: 5.4 µM
NCI-H322M
  GI50: 10.5 µM
SK-MEL-5
  GI50: 31.3 µM
HCT-116
  GI50: 37.9 µM
A498
  GI50: 0.615 µM
SK-MEL-2
  GI50: 100 µM
SK-MEL-28
  GI50: 12.8 µM
[1]
  Phosphorylation of Akt: inhibits phosphorylation of Akt
MDA-MB-435
  GI50: 43.1 µM
EKVX
  GI50: 16.7 µM
MALME-3M
  GI50: 4.58 µM
LOX IMVI
  GI50: 36.1 µM
p110δ
  EC50: ~0.015 µM
OVCAR-8
  GI50: 44.6 µM
M14
  GI50: 88.9 µM
NCI-H522
  GI50: 51.8 µM
HT29
  GI50: 16.5 µM
SW-620
  GI50: 69.3 µM
MDA-MB-231
  GI50: 100 µM
SK-OV-3
  GI50: 4.02 µM
SN12C
  GI50: 22.5 µM
ADR-RES
  GI50: 58.6 µM
p110α
  EC50: > 20 µM
A549
  GI50: 20.7 µM
OVCAR-4
  GI50: 100 µM
NCI-H226
  GI50: 100 µM
[2]
  Phosphorylation of Akt: inhibits phosphorylation of Akt
IGROV1
  GI50: 2.7 µM
